According to ChEMBL document CHEMBL1201862, “PubChem BioAssay data set” (2004):
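Briefly, cells in 96-well plates were exposed to five compound concentrations for 48 h, and endpoints were estimated by linear interpolation. GI50: concentration for 50% inhibition of growth.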 Active and inactive are the calls of the source. Rule as the data show it: active = GI50 up to about 1.1 µM and inactive = higher.

Legend:
Assay in all cases: NCI anticancer screen, dose series, 48 h
SK-OV-3 = system: SK-OV-3
OVCAR-5 = system: OVCAR-5
OVCAR-4 = system: OVCAR-4
Malme-3M = system: Malme-3M
SNB-19 = system: SNB-19
BT-549 = system: BT-549
U-251 = system: U-251
M14 = system: M14
RPMI-8226 = system: RPMI-8226
HOP-62 = system: HOP-62
786-0 = system: 786-0
MCF7 = system: MCF7
DU-145 = system: DU-145
HT-29 = system: HT-29
UO-31 = system: UO-31
Hs-578T = system: Hs-578T
RXF 393 = system: RXF 393
COLO 205 = system: COLO 205
HCC 2998 = system: HCC 2998

Measured: GI50

Cc1ncc(CO)c(/C=N/CCCCCC/N=C/c2c(CO)cnc(C)c2[O-])c1[O-].[Mg+2]
inactive: SK-OV-3 > 100 µM | OVCAR-5 > 100 µM | OVCAR-4 > 100 µM | Malme-3M > 100 µM | SNB-19 > 100 µM | BT-549 > 100 µM | U-251 > 100 µM | M14 > 100 µM | RPMI-8226 > 100 µM | HOP-62 > 100 µM | 786-0 > 100 µM | MCF7 > 60.1 µM | DU-145 > 100 µM | HT-29 > 100 µM | UO-31 > 100 µM | Hs-578T > 100 µM | RXF 393 > 100 µM | COLO 205 > 100 µM | HCC 2998 > 100 µM

O=C1NC(=O)c2ccccc2/C1=C/c1ccc2c(c1)OCO2
inactive: SK-OV-3 27.3 µM | OVCAR-5 29.2 µM | OVCAR-4 49.1 µM | Malme-3M 31.3 µM | SNB-19 32 µM | BT-549 20.9 µM | M14 24 µM | RPMI-8226 19.3 µM | HOP-62 11.2 µM | 786-0 8.02 µM | MCF7 20 µM | DU-145 40.3 µM | HT-29 20.8 µM | UO-31 17.2 µM | Hs-578T 10.4 µM | RXF 393 3.29 µM | COLO 205 > 10 µM | HCC 2998 14.6 µM

CCC(=O)Nc1ccc(N2C(=O)C(Cl)C2c2ccc(SC)cc2)cc1 (centres undefined)
inactive: SK-OV-3 > 100 µM | OVCAR-5 97.5 µM | OVCAR-4 33.5 µM | Malme-3M > 100 µM | SNB-19 > 100 µM | BT-549 > 100 µM | M14 > 100 µM | RPMI-8226 32.5 µM | HOP-62 61.7 µM | 786-0 57.3 µM | MCF7 56.2 µM | DU-145 > 100 µM | HT-29 > 100 µM | UO-31 > 100 µM | Hs-578T > 100 µM | RXF 393 34.8 µM | COLO 205 40.4 µM | HCC 2998 30.9 µM

COC(=O)[C@H](Cc1ccccc1)NC(=O)NCCN(CCNC(=O)N[C@@H](Cc1ccccc1)C(=O)OC)C(=O)N[C@@H](Cc1ccccc1)C(=O)OC
inactive: SK-OV-3 31.9 µM | OVCAR-5 20.4 µM | OVCAR-4 15.2 µM | Malme-3M 22 µM | SNB-19 24.7 µM | BT-549 18.9 µM | U-251 21.8 µM | M14 25.6 µM | RPMI-8226 25.3 µM | HOP-62 20.7 µM | 786-0 19.5 µM | MCF7 26 µM | DU-145 21.1 µM | UO-31 24.3 µM | Hs-578T 23.8 µM | RXF 393 16.9 µM | COLO 205 21.9 µM | HCC 2998 20.3 µM

CCC/N=C(/NC(=O)c1ccc(Cl)cc1)SC
inactive: SK-OV-3 > 100 µM | OVCAR-5 > 100 µM | OVCAR-4 50.9 µM | Malme-3M > 100 µM | SNB-19 17.6 µM | BT-549 25.5 µM | U-251 > 100 µM | M14 > 100 µM | RPMI-8226 26.5 µM | HOP-62 > 100 µM | 786-0 > 100 µM | MCF7 75.9 µM | DU-145 > 100 µM | HT-29 97.3 µM | UO-31 15 µM | Hs-578T 12.1 µM | RXF 393 > 100 µM | COLO 205 > 100 µM | HCC 2998 > 100 µM

N#Cc1c(-c2ccc([N+](=O)[O-])cc2)c2c([nH]c1=O)-c1ccccc1CCC2
inactive: SK-OV-3 > 100 µM | OVCAR-5 > 100 µM | OVCAR-4 65.6 µM | Malme-3M 56.6 µM | SNB-19 70.1 µM | BT-549 24.9 µM | U-251 52.5 µM | M14 > 100 µM | RPMI-8226 30.8 µM | HOP-62 40.5 µM | 786-0 > 100 µM | MCF7 33.4 µM | DU-145 28.1 µM | HT-29 55.3 µM | UO-31 86.3 µM | Hs-578T 75 µM | RXF 393 30.9 µM | COLO 205 83.9 µM | HCC 2998 22.6 µM

N[C@H]1c2c(Br)sc(Br)c2C(=O)[C@H]1O
inactive: SK-OV-3 12.3 µM | OVCAR-5 22 µM | OVCAR-4 11.4 µM | Malme-3M 11.6 µM | SNB-19 21.8 µM | BT-549 6.3 µM | U-251 14.4 µM | M14 8.69 µM | RPMI-8226 27.4 µM | HOP-62 18.2 µM | 786-0 18.6 µM | MCF7 13.3 µM | DU-145 20.3 µM | HT-29 11.2 µM | UO-31 20.3 µM | Hs-578T 31 µM | RXF 393 4.95 µM | COLO 205 6.18 µM | HCC 2998 13.8 µM

CN(C)c1ccc(/C=C2\N=C(N/N=C/c3ccc(N(C)C)cc3)NC2=O)cc1
inactive: SK-OV-3 > 100 µM | OVCAR-5 > 100 µM | OVCAR-4 > 100 µM | Malme-3M > 100 µM | SNB-19 > 100 µM | BT-549 > 100 µM | U-251 52.1 µM | M14 88.7 µM | RPMI-8226 76.6 µM | HOP-62 > 100 µM | 786-0 > 100 µM | MCF7 71.9 µM | DU-145 28.1 µM | HT-29 42.7 µM | UO-31 > 100 µM | Hs-578T > 100 µM | RXF 393 7.6 µM | COLO 205 22.8 µM | HCC 2998 > 100 µM
